Measured values from patent US9611267B2, “Substituted tricyclic compounds as FGFR inhibitors” (Incyte Corporation, priority 2012, dated 2017).

Columns and labels:
Format in all cases: biochemical
[1] = molecular target: FGFR3 (Homo sapiens (Human), UniProt P22607); assay: FGFR enzymatic assay (FRET peptide phosphorylation), FGFR3; conditions: FGFR3 enzyme (Millipore), ATP 140 μM
Summary of the method: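 After 5-10 min pre-incubation of FGFR3 with serially diluted compound in pH 7.5 HEPES/MgCl2/EGTA/DTT buffer, the reaction proceeded 1 hr at 25° C. Phosphorylated peptide was detected by FRET, and IC50 was fitted with a variable-slope sigmoid.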

[2] = molecular target: FGFR2 (Homo sapiens (Human), UniProt P21802); assay: FGFR enzymatic assay (FRET peptide phosphorylation), FGFR2; conditions: FGFR2 enzyme 0.01 nM, ATP 100 μM
Chain of FGFR2 (P21802 22-821): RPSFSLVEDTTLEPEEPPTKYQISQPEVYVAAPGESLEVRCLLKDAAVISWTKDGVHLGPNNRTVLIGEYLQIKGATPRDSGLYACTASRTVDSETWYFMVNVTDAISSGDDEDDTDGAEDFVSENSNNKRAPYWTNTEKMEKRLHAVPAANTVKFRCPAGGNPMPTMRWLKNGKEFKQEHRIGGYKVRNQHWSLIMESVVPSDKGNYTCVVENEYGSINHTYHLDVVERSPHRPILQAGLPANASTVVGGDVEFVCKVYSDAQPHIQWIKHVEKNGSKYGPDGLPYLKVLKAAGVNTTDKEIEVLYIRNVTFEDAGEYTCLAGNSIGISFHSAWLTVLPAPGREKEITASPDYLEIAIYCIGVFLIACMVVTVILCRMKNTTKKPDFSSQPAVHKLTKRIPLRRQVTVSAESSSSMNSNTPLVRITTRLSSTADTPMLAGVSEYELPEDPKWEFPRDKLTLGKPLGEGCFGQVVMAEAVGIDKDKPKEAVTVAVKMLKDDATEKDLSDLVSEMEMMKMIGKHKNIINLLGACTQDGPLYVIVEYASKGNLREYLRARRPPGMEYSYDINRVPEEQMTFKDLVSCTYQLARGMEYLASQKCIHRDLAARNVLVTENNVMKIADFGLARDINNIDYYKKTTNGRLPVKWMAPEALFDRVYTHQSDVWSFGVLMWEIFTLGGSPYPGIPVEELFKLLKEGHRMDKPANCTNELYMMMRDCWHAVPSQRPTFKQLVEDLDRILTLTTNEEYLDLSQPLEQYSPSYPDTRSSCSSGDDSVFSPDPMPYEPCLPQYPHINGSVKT
Summary of the method: (§1)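 IC50 values were obtained from variable-slope sigmoidal dose-response fitting of a FRET read-out of peptide phosphorylation. The buffer, described for FGFR3, was 50 mM HEPES pH 7.5 with MgCl2, EGTA, Tween-20 and DTT.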

[3] = molecular target: FGFR1 (Homo sapiens (Human), UniProt P11362); assay: FGFR enzymatic assay (FRET peptide phosphorylation), FGFR1; conditions: FGFR1 enzyme 0.02 nM, ATP 210 μM
Chain of FGFR1 (P11362 22-822): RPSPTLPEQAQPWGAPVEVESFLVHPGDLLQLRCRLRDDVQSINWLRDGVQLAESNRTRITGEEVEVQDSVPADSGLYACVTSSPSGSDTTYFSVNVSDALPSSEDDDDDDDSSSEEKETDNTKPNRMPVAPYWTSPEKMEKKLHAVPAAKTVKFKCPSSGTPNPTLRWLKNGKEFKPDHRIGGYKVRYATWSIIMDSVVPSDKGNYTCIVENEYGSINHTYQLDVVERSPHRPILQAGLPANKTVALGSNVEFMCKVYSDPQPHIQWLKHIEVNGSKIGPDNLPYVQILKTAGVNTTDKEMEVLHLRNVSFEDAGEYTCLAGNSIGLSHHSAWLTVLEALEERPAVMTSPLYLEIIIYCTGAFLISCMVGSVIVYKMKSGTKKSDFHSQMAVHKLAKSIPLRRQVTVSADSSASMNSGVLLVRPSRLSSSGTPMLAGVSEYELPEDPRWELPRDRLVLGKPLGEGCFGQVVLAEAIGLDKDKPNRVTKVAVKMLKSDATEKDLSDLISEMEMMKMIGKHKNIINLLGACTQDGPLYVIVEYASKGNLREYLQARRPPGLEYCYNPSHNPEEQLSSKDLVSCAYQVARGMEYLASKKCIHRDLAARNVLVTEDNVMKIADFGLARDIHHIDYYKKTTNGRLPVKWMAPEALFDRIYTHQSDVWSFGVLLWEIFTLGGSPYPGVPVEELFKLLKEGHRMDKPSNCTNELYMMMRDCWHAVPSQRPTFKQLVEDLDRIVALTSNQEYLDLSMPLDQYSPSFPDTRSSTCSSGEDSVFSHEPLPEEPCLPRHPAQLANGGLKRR
Summary of the method: as §1

Measured: IC50

Chain of FGFR3 (P22607 23-806): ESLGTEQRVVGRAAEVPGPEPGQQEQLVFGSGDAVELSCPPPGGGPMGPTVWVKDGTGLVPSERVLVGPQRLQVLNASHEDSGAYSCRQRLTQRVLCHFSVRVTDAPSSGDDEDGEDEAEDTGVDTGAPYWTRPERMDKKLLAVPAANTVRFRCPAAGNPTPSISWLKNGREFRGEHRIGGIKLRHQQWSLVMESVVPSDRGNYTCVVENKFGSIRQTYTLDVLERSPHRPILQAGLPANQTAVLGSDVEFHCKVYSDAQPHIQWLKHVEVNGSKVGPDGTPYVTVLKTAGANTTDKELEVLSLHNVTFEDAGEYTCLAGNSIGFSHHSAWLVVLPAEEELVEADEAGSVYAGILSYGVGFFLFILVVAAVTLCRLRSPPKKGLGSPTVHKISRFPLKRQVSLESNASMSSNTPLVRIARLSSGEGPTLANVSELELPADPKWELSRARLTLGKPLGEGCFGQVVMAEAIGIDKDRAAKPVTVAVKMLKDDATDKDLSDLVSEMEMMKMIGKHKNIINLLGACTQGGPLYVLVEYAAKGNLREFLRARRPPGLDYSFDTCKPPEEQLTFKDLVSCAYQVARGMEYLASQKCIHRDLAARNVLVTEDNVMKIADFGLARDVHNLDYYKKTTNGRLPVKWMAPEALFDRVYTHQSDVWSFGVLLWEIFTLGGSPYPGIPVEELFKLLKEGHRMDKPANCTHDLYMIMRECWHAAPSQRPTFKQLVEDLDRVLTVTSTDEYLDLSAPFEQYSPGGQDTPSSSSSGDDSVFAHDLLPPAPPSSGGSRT

COc1cc(OC)c(F)c(N2Cc3cnc4[nH]ncc4c3N(C[C@@H]3CCOC3)C2=O)c1F [Example 179, 3-(2,6-difluoro-3,5-dimethoxyphenyl)-1-[(3S)-tetrahydrofuran-3-ylmethyl]-1,3,4,7-tetrahydro-2H-pyrazolo[4′,3′:5,6]pyrido[4,3-d]pyrimidin-2-one]
< 100 nM: all assays above

COc1cc(OC)c(F)c(N2Cc3cnc4[nH]c(CN5CCOCC5)cc4c3N(c3ccccc3F)C2=O)c1F [Example 180, 3-(2,6-difluoro-3,5-dimethoxyphenyl)-1-(2-fluorophenyl)-8-(morpholin-4-ylmethyl)-1,3,4,7-tetrahydro-2H-pyrrolo[3′,2′:5,6]pyrido[4,3-d]pyrimidin-2-one]
< 100 nM: all assays above

CCN1CCN(Cc2cc3c4c(cnc3[nH]2)CN(c2c(F)c(OC)cc(OC)c2F)C(=O)N4c2ccccc2F)CC1 [Example 181, 3-(2,6-difluoro-3,5-dimethoxyphenyl)-8-[(4-ethylpiperazin-1-yl)methyl]-1-(2-fluorophenyl)-1,3,4,7-tetrahydro-2H-pyrrolo[3′,2′:5,6]pyrido[4,3-d]pyrimidin-2-one]
< 100 nM: all assays above

COc1cc(OC)c(F)c(N2Cc3cnc4[nH]c(CN5CCOCC5)cc4c3N(C3CCC3)C2=O)c1F [Example 182, 1-cyclobutyl-3-(2,6-difluoro-3,5-dimethoxyphenyl)-8-(morpholin-4-ylmethyl)-1,3,4,7-tetrahydro-2H-pyrrolo[3′,2′:5,6]pyrido[4,3-d]pyrimidin-2-one]
< 100 nM: all assays above

COc1cc(OC)c(F)c(N2Cc3cnc4[nH]c(CCN5CCOCC5)cc4c3N(C3CCC3)C2=O)c1F [Example 183, 1-cyclobutyl-3-(2,6-difluoro-3,5-dimethoxyphenyl)-8-(2-morpholin-4-ylethyl)-1,3,4,7-tetrahydro-2H-pyrrolo[3′,2′:5,6]pyrido[4,3-d]pyrimidin-2-one]
< 100 nM: all assays above

CCCN1C(=O)N(c2c(F)c(OC)cc(OC)c2F)Cc2cnc3[nH]c(CN4CCOCC4)cc3c21 [Example 184, 3-(2,6-difluoro-3,5-dimethoxyphenyl)-8-(morpholin-4-ylmethyl)-1-propyl-1,3,4,7-tetrahydro-2H-pyrrolo[3′,2′:5,6]pyrido[4,3-d]pyrimidin-2-one]
< 100 nM: all assays above

CCN1C(=O)N(c2c(F)c(OC)cc(OC)c2F)Cc2cnc3[nH]c(CCN4CCOCC4)cc3c21 [Example 185, 3-(2,6-difluoro-3,5-dimethoxyphenyl)-1-ethyl-8-(2-morpholin-4-ylethyl)-1,3,4,7-tetrahydro-2H-pyrrolo[3′,2′:5,6]pyrido[4,3-d]pyrimidin-2-one]
< 100 nM: all assays above

COc1cc(OC)c(F)c(N2Cc3cnc4[nH]c(CN5CCOCC5)cc4c3N(C3CC3)C2=O)c1F [Example 186, 1-cyclopropyl-3-(2,6-difluoro-3,5-dimethoxyphenyl)-8-(morpholin-4-ylmethyl)-1,3,4,7-tetrahydro-2H-pyrrolo[3′,2′:5,6]pyrido[4,3-d]pyrimidin-2-one]
< 100 nM: all assays above

COc1cc(OC)c(F)c(N2Cc3cnc4[nH]c(CN5CCN(C)CC5)cc4c3N(C3CC3)C2=O)c1F [Example 187, 1-cyclopropyl-3-(2,6-difluoro-3,5-dimethoxyphenyl)-8-[(4-methylpiperazin-1-yl)methyl]-1,3,4,7-tetrahydro-2H-pyrrolo[3′,2′:5,6]pyrido[4,3-d]pyrimidin-2-one]
< 100 nM: all assays above

CCN1CCN(Cc2cc3c4c(cnc3[nH]2)CN(c2c(F)c(OC)cc(OC)c2F)C(=O)N4C2CC2)CC1 [Example 188, 1-cyclopropyl-3-(2,6-difluoro-3,5-dimethoxyphenyl)-8-[(4-ethylpiperazin-1-yl)methyl]-1,3,4,7-tetrahydro-2H-pyrrolo[3′,2′:5,6]pyrido[4,3-d]pyrimidin-2-one]
< 100 nM: all assays above

COc1cc(OC)c(F)c(N2Cc3cnc4[nH]c(CN5CCOCC5)cc4c3N(c3ccc(F)cc3)C2=O)c1F [Example 189, 3-(2,6-difluoro-3,5-dimethoxyphenyl)-1-(4-fluorophenyl)-8-(morpholin-4-ylmethyl)-1,3,4,7-tetrahydro-2H-pyrrolo[3′,2′:5,6]pyrido[4,3-d]pyrimidin-2-one]
< 100 nM: all assays above

COc1cc(OC)c(F)c(N2Cc3cnc4[nH]c(CN5CCN(C)CC5)cc4c3N(c3ccc(F)cc3)C2=O)c1F [Example 190, 3-(2,6-difluoro-3,5-dimethoxyphenyl)-1-(4-fluorophenyl)-8-[(4-methylpiperazin-1-yl)methyl]-1,3,4,7-tetrahydro-2H-pyrrolo[3′,2′:5,6]pyrido[4,3-d]pyrimidin-2-one]
< 100 nM: all assays above

CCN1CCN(Cc2cc3c4c(cnc3[nH]2)CN(c2c(F)c(OC)cc(OC)c2F)C(=O)N4c2ccc(F)cc2)CC1 [Example 191, 3-(2,6-difluoro-3,5-dimethoxyphenyl)-1-(4-fluorophenyl)-8-[(4-ethylpiperazin-1-yl)methyl]-1,3,4,7-tetrahydro-2H-pyrrolo[3′,2′:5,6]pyrido[4,3-d]pyrimidin-2-one]
< 100 nM: all assays above

COc1cc(OC)c(F)c(N2Cc3cnc4[nH]c(CN5CCN(C)CC5)cc4c3N(c3cccc(F)c3F)C2=O)c1F [Example 192, 3-(2,6-difluoro-3,5-dimethoxyphenyl)-1-(2,3-difluorophenyl)-8-[(4-methylpiperazin-1-yl)methyl]-1,3,4,7-tetrahydro-2H-pyrrolo[3′,2′:5,6]pyrido[4,3-d]pyrimidin-2-one]
< 100 nM: all assays above

CCN1CCN(Cc2cc3c4c(cnc3[nH]2)CN(c2c(F)c(OC)cc(OC)c2F)C(=O)N4c2cccc(F)c2F)CC1 [Example 193, 3-(2,6-difluoro-3,5-dimethoxyphenyl)-1-(2,3-difluorophenyl)-8-[(4-ethylpiperazin-1-yl)methyl]-1,3,4,7-tetrahydro-2H-pyrrolo[3′,2′:5,6]pyrido[4,3-d]pyrimidin-2-one]
< 100 nM: all assays above

COc1cc(OC)c(F)c(N2Cc3cnc4[nH]c(CN5CCOCC5)cc4c3N(c3ccncc3)C2=O)c1F [Example 194, 3-(2,6-difluoro-3,5-dimethoxyphenyl)-8-(morpholin-4-ylmethyl)-1-pyridin-4-yl-1,3,4,7-tetrahydro-2H-pyrrolo[3′,2′:5,6]pyrido[4,3-d]pyrimidin-2-one]
< 100 nM: all assays above

COc1cc(OC)c(F)c(N2Cc3cnc4[nH]c(CN5CCN(C)CC5)cc4c3N(c3ccncc3)C2=O)c1F [Example 195, 3-(2,6-difluoro-3,5-dimethoxyphenyl)-8-[(4-methylpiperazin-1-yl)methyl]-1-pyridin-4-yl-1,3,4,7-tetrahydro-2H-pyrrolo[3′,2′:5,6]pyrido[4,3-d]pyrimidin-2-one]
< 100 nM: all assays above

COc1cc(OC)c(F)c(N2Cc3cnc4[nH]c(CCN5CCOCC5)cc4c3N(c3ccccc3F)C2=O)c1F [Example 196, 3-(2,6-difluoro-3,5-dimethoxyphenyl)-1-(2-fluorophenyl)-8-(2-morpholin-4-ylethyl)-1,3,4,7-tetrahydro-2H-pyrrolo[3′,2′:5,6]pyrido[4,3-d]pyrimidin-2-one]
< 100 nM: all assays above

COc1cc(OC)c(F)c(N2Cc3cnc4[nH]c(CCN5CCN(C)CC5)cc4c3N(c3ccccc3F)C2=O)c1F [Example 197, 3-(2,6-difluoro-3,5-dimethoxyphenyl)-1-(2-fluorophenyl)-8-[2-(4-methylpiperazin-1-yl)ethyl]-1,3,4,7-tetrahydro-2H-pyrrolo[3′,2′:5,6]pyrido[4,3-d]pyrimidin-2-one]
< 100 nM: all assays above

CCN1CCN(CCc2cc3c4c(cnc3[nH]2)CN(c2c(F)c(OC)cc(OC)c2F)C(=O)N4c2ccccc2F)CC1 [Example 198, 3-(2,6-difluoro-3,5-dimethoxyphenyl)-1-(2-fluorophenyl)-8-[2-(4-ethylpiperazin-1-yl)ethyl]-1,3,4,7-tetrahydro-2H-pyrrolo[3′,2′:5,6]pyrido[4,3-d]pyrimidin-2-one]
< 100 nM: all assays above

COc1cc(OC)c(F)c(N2Cc3cnc4[nH]ncc4c3N(c3cccc(C(=O)NC(C)C)c3F)C2=O)c1F [Example 199, 3-[3-(2,6-difluoro-3,5-dimethoxyphenyl)-2-oxo-2,3,4,7-tetrahydro-1H-pyrazolo[4′,3′:5,6]pyrido[4,3-d]pyrimidin-1-yl]-2-fluoro-N-isopropylbenzamide]
< 100 nM: all assays above

COc1cc(OC)c(F)c(N2Cc3cnc4[nH]ncc4c3N(c3cccc(C(=O)NC4CC4)c3F)C2=O)c1F [Example 200, N-cyclopropyl-3-[3-(2,6-difluoro-3,5-dimethoxyphenyl)-2-oxo-2,3,4,7-tetrahydro-1H-pyrazolo[4′,3′:5,6]pyrido[4,3-d]pyrimidin-1-yl]-2-fluorobenzamide]
< 100 nM: all assays above
